Data as given in patent US8124635B2, “Antimicrobial composition useful for preserving wood” (Rohm and Haas Company, priority 2006, dated 2012).
Like-named read-outs stand apart in the source and are kept apart here.

Tests used:
Format in all cases: cell-based
[1] = test system: Pseudomonas aeruginosa (Ps. aeruginosa—ATCC # 9027); experiment: Microtiter plate MIC / synergy test (Kull synergy index), M9GY medium, 30° C.; conditions: for MIC: Pseudomonas aeruginosa, read-out: MIC of the component acting alone (end point); for Cb = Component B (OIT), end-point concentration (MIC), alone or in mixture: Component A propiconazole; for Ca = Component A (propiconazole), end-point concentration (MIC), alone or in mixture: Component B OIT
Source text: (§1) One measure of synergism is the industrially accepted method described by Kull, F. C.; Eisman, P. C.; Sylwestrowicz, H. D. and Mayer, R. L., in Applied Microbiology 9:538-541 (1961), using the ratio determined by the formula: Ca/CA+Cb/CB=Synergy Index (“SI”) wherein: • CA=concentration of compound A (first component) in ppm, acting alone, which produced an end point (MIC of Compound A). • Ca=concentration of compound A in ppm, in the mixture, which produced an end point. • CB=concentration of compound B (second component) in ppm, acting alone, which produced an end point (MIC of Compound B). • Cb=concentration of compound B in ppm, in the mixture, which produced an end point.
(§2) When the sum of Ca/CA and Cb/CB is greater than one, antagonism is indicated. […] The lower the SI, the greater the synergy shown by that particular mixture. The minimum inhibitory concentration (MIC) of an antimicrobial compound is the lowest concentration tested under a specific set of conditions that prevents the growth of added microorganisms.
(§3) Synergy tests were conducted using standard microtiter plate assays with media designed for optimal growth of the test microorganism. Minimal salt medium supplemented with 0.2% glucose and 0.1% yeast extract (M9GY medium) was used for bacteria testing; Potato Dextrose Broth (PDB medium) was used for yeast and mold testing. In this method, a wide range of combinations of microbicides was tested by conducting high resolution MIC assays in the presence of various concentrations of biocides. High resolution MICs were determined by adding varying amounts of microbicide to one column of a microtitre plate and doing subsequent ten-fold dilutions using an automated liquid handling system to obtain a series of end points ranging of active ingredient. The synergy of the combinations of the present invention was determined against two bacteria, Pseudomonas aeruginosa (Ps. aeruginosa—ATCC # 9027) and Staphylococcus aureus (S. aureus—ATCC # 6538), a yeast, Candida albicans (C. albicans—ATCC # 10231), and a mold, Aspergillus niger (A. niger—ATCC 16404). The bacteria were used at a concentration of about 1-6×10^6 bacteria per mL and the yeast and mold at 1−5×10^5 fungi per mL. These microorganisms are representative of natural contaminants in many consumer and industrial applications. […] (yeast and mold) or 30° C. (bacteria).

[2] = test system: Staphylococcus aureus (S. aureus—ATCC # 6538); experiment: as above; design: Ca = Component A (tebuconazole), end-point concentration (MIC), alone or in mixture / Ca = Component A (propiconazole), end-point concentration (MIC), alone or in mixture: unit: ppm; conditions: for MIC: Staphylococcus aureus, read-out: MIC of the component acting alone (end point); for Cb = Component B (OIT), end-point concentration (MIC), alone or in mixture: Component A propiconazole
Source text: as §1, §2, §3

[3] = test system: Gloeophyllum trabeum (G. trabeum—ATCC # 11593); experiment: Application test: treated paper disc on Malt agar plate, fungal growth observed visually after 4 weeks; conditions: G. trabeum ATCC # 11539, contact time 4 weeks
Description: (§4) An application test was performed to evaluate synergy of DCOIT/thifluzamide alone and in combination against Gloeophyllum trabeum (G. trabeum—ATCC # 11593) and Trametes vesicolor (T. vesicolor—ATCC # 4262). A paper disc was dipped in the treatment solution, air dried and placed on Malt agar plate streaked with the test organisms. The surface of the disc was also swabbed with the test organisms. The agar plates were incubated at 25° C. for 4 weeks. Fungal growth was then observed visually.

[4] = test system: Trametes vesicolor (T. vesicolor—ATCC # 4262); experiment: as above; conditions: T. vesicolor ATCC # 42462, contact time 4 weeks
Description: as §4

[5] = test system: Candida albicans (C. albicans—ATCC # 10231); experiment: Microtiter plate MIC / synergy test (Kull synergy index), PDB medium, 25° C.; design: Ca = Component A (tebuconazole), end-point concentration (MIC), alone or in mixture / Ca = Component A (propiconazole), end-point concentration (MIC), alone or in mixture: unit: ppm; conditions: for MIC: Candida albicans, read-out: MIC of the component acting alone (end point); for MIC / MIC of the component acting alone (end point): C. albicans; for Cb = Component B (OIT), end-point concentration (MIC), alone or in mixture: Component A propiconazole
Source text: as §1, §2, §3

[6] = test system: Aspergillus niger (A. niger—ATCC 16404); experiment: as above; conditions: for MIC: Aspergillus niger, read-out: MIC of the component acting alone (end point)
Source text: as §1, §2, §3

[7] = ATCC9027, 24 h, Ps. aeruginosa, contact time 24 hour
[8] = ATCC9027, 48 h, Ps. aeruginosa, contact time 48 hour
[9] = ATCC6538, 24 h, S. aureus, contact time 24 hour
[10] = ATCC6538, 48 h, S. aureus, contact time 48 hour
[11] = S. aureus, contact time 24 hour, Component B CMIT/MIT
[12] = S. aureus, contact time 24 hour, Component B copper 8-hydroxyquinoline
[13] = S. aureus, contact time 48 hour, Component B copper 8-hydroxyquinoline
[14] = C. albicans ATCC # 10231, contact time 24 hour, Component B CMIT/MIT
[15] = C. albicans ATCC # 10231, contact time 24 hour, Component B copper 8-hydroxyquinoline
[16] = C. albicans ATCC # 10231, contact time 48 hour, Component B copper 8-hydroxyquinoline
[17] = ATCC10231, 24 h, contact time 24 hour
[18] = A. niger ATCC # 16404, contact time 3 days, Component B copper 8-hydroxyquinoline
[19] = A. niger ATCC # 16404, contact time 7 days, Component B copper 8-hydroxyquinoline
[20] = ATCC16404, 72 h, A. niger, contact time 3 days
[21] = ATCC16404, 168 h, A. niger, contact time 7 days
[22] = Ps. Aeruginosa ATCC # 9027, contact time 24 hour
[23] = Ps. Aeruginosa ATCC # 9027, contact time 48 hour
[24] = Ps. aeruginosa, contact time 24 hour
[25] = S. aureus, contact time 24 hour
[26] = S. aureus, contact time 48 hour

## CCCCCCCCn1sc(Cl)c(Cl)c1=O [DCOIT, 4,5-dichloro-2-n-octyl-4-isothiazolin-3-one]
[1]; [7]
  MIC: 3.2 µg/mL
[1]; [8]
  MIC: 5.3 µg/mL
[2]; [9]
  MIC: 0.1 µg/mL
[2]; [10]
  MIC: 0.4 µg/mL
[3]; Component B thifluzamide
  Ca = Component A (DCOIT), end-point concentration, alone or in mixture: 320
[4]; Component B thifluzamide
  Ca = Component A (DCOIT), end-point concentration, alone or in mixture: 320

## CC(C)(C)C(O)(CCc1ccc(Cl)cc1)Cn1cncn1 (stereo not shown) [tebuconazole]
[1]; Ps. Aeruginosa ATCC # 9027, contact time 24 hour, Component B copper 8-hydroxyquinoline
  Ca = Component A (tebuconazole), end-point concentration (MIC), alone or in mixture: 900
[1]; [7]
  MIC: 900 µg/mL
[1]; [8]
  MIC: 900 µg/mL
[2]; [11]
  Ca = Component A (tebuconazole), end-point concentration (MIC), alone or in mixture: 50
[2]; [12]
  Ca = Component A (tebuconazole), end-point concentration (MIC), alone or in mixture: 50
[2]; S. aureus, contact time 48 hour, Component B CMIT/MIT
  Ca = Component A (tebuconazole), end-point concentration (MIC), alone or in mixture: 50
[2]; [13]
  Ca = Component A (tebuconazole), end-point concentration (MIC), alone or in mixture: 50
[2]; [9]
  MIC: 50 µg/mL
[2]; [10]
  MIC: 50 µg/mL
[5]; [14]
  Ca = Component A (tebuconazole), end-point concentration (MIC), alone or in mixture: 50
[5]; [15]
  Ca = Component A (tebuconazole), end-point concentration (MIC), alone or in mixture: 60
[5]; C. albicans ATCC # 10231, contact time 48 hour, Component B CMIT/MIT
  Ca = Component A (tebuconazole), end-point concentration (MIC), alone or in mixture: 50
[5]; [16]
  Ca = Component A (tebuconazole), end-point concentration (MIC), alone or in mixture: 60
[5]; [17]
  MIC: 50 µg/mL
[6]; [18]
  Ca = Component A (tebuconazole), end-point concentration (MIC), alone or in mixture: 8
[6]; [19]
  Ca = Component A (tebuconazole), end-point concentration (MIC), alone or in mixture: 8
[6]; [20]
  MIC: 8 µg/mL
[6]; [21]
  MIC: 8 µg/mL

## CCCCCCCCn1sccc1=O [OIT, 2-n-octyl-4-isothiazolin-3-one]
[1]; [22]
  Cb = Component B (OIT), end-point concentration (MIC), alone or in mixture: 390
[1]; [23]
  Cb = Component B (OIT), end-point concentration (MIC), alone or in mixture: 525
[1]; [24]
  MIC of the component acting alone (end point): 390 ppm
[1]; [7]
  MIC: 390 µg/mL
[1]; [8]
  MIC: 415 µg/mL
[2]; [25]
  Cb = Component B (OIT), end-point concentration (MIC), alone or in mixture: 63
[2]; [26]
  Cb = Component B (OIT), end-point concentration (MIC), alone or in mixture: 78
[2]; [9]
  MIC: 63 µg/mL
[2]; [10]
  MIC: 78 µg/mL
[5]; C. albicans ATCC # 10231, contact time 24 hour
  Cb = Component B (OIT), end-point concentration (MIC), alone or in mixture: 1.3
[5]; C. albicans ATCC # 10231, contact time 48 hour
  Cb = Component B (OIT), end-point concentration (MIC), alone or in mixture: 1.3
[5]; contact time 24 hour
  MIC of the component acting alone (end point): 0.9 ppm
[5]; [17]
  MIC: 0.6 µg/mL
[5]; ATCC10231, 48 h, contact time 48 hour
  MIC: 0.9 µg/mL
[6]; [20]
  MIC: 3.3 µg/mL
[6]; [21]
  MIC: 3.3 µg/mL

## CCCC1COC(Cn2cncn2)(c2ccc(Cl)cc2Cl)O1 (stereo not shown) [propiconazole]
[1]; [22]
  Ca = Component A (propiconazole), end-point concentration (MIC), alone or in mixture: 800
[1]; [23]
  Ca = Component A (propiconazole), end-point concentration (MIC), alone or in mixture: 800
[2]; [11]
  Ca = Component A (propiconazole), end-point concentration (MIC), alone or in mixture: 100
[2]; S. aureus, contact time 24 hour, Component B OIT
  Ca = Component A (propiconazole), end-point concentration (MIC), alone or in mixture: 100
[2]; [12]
  Ca = Component A (propiconazole), end-point concentration (MIC), alone or in mixture: 100
[2]; S. aureus, contact time 48 hour, Component B OIT
  Ca = Component A (propiconazole), end-point concentration (MIC), alone or in mixture: 100
[2]; [13]
  Ca = Component A (propiconazole), end-point concentration (MIC), alone or in mixture: 100
[2]; [9]
  MIC: 100 µg/mL
[5]; [14]
  Ca = Component A (propiconazole), end-point concentration (MIC), alone or in mixture: 50
[5]; C. albicans ATCC # 10231, contact time 24 hour, Component B OIT
  Ca = Component A (propiconazole), end-point concentration (MIC), alone or in mixture: 50
[5]; [15]
  Ca = Component A (propiconazole), end-point concentration (MIC), alone or in mixture: 50
[5]; C. albicans ATCC # 10231, contact time 48 hour, Component B OIT
  Ca = Component A (propiconazole), end-point concentration (MIC), alone or in mixture: 50
[5]; [16]
  Ca = Component A (propiconazole), end-point concentration (MIC), alone or in mixture: 50
[6]; A. niger ATCC # 16404, contact time 3 days, Component B CMIT/MIT
  Ca = Component A (propiconazole), end-point concentration (MIC), alone or in mixture: 20
[6]; [18]
  Ca = Component A (propiconazole), end-point concentration (MIC), alone or in mixture: 20
[6]; [19]
  Ca = Component A (propiconazole), end-point concentration (MIC), alone or in mixture: 25
[6]; [20]
  MIC: 20 µg/mL
[6]; [21]
  MIC: 20 µg/mL

## Cn1sccc1=O [MI, 2-methyl-4-isothiazolin-3-one]
[1]; ATCC9027, 24 h
  MIC: 20 µg/mL
[1]; ATCC9027, 48 h
  MIC: 20 µg/mL
[2]; ATCC6538, 24 h
  MIC: 30 µg/mL
[2]; ATCC6538, 48 h
  MIC: 40 µg/mL
[6]; ATCC16404, 72 h
  MIC: 450 µg/mL
[6]; ATCC16404, 168 h
  MIC: 450 µg/mL

## Cc1nc(C(F)(F)F)c(C(=O)Nc2c(Br)cc(OC(F)(F)F)cc2Br)s1 [thifluzamide]
[3]; Component A DCOIT
  Cb = Component B (thifluzamide), end-point concentration, alone or in mixture: >960
[4]; Component A DCOIT
  Cb = Component B (thifluzamide), end-point concentration, alone or in mixture: 320

## CCCCNC(=O)OCC#CI [IPBC, 3-iodo-2-propynyl-butylcarbamate]
[1]; [24]
  MIC of the component acting alone (end point): 263 ppm
[1]; Ps. aeruginosa, contact time 48 hour
  MIC of the component acting alone (end point): 263 ppm
[2]; [25]
  MIC of the component acting alone (end point): 34 ppm
[2]; [26]
  MIC of the component acting alone (end point): 42 ppm
[5]; contact time 24 hour
  MIC of the component acting alone (end point): 4.2 ppm
[5]; contact time 48 hour
  MIC of the component acting alone (end point): 4.2 ppm
[6]; A. niger, contact time 3 days
  MIC of the component acting alone (end point): 0.4 ppm
